Targets include Carbonic anhydrase 7 (Homo sapiens, UniProt P43166); Carbonic anhydrase 13 (Mus musculus, UniProt Q9D6N1); Carbonic anhydrase 1 (Homo sapiens, UniProt P00915).

Structures are written as SMILES.

Chain of Carbonic anhydrase 7 (P43166 whole entry): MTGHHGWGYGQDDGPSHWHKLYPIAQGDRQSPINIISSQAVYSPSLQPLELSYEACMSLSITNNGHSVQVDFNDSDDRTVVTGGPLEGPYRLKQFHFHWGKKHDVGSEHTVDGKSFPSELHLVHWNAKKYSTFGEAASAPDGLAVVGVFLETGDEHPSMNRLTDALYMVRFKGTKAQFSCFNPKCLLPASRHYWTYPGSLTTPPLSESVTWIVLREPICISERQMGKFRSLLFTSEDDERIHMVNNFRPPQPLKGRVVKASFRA
Chain of Carbonic anhydrase 1 (P00915 whole entry): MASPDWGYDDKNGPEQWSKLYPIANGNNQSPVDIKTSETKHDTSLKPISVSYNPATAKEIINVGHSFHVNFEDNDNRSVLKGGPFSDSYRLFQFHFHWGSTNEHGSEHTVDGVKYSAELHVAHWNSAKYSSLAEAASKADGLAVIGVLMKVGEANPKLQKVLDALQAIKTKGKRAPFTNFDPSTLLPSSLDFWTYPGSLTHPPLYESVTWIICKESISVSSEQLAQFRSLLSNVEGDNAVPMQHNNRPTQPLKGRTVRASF
Chain of Carbonic anhydrase 13 (Q9D6N1 whole entry): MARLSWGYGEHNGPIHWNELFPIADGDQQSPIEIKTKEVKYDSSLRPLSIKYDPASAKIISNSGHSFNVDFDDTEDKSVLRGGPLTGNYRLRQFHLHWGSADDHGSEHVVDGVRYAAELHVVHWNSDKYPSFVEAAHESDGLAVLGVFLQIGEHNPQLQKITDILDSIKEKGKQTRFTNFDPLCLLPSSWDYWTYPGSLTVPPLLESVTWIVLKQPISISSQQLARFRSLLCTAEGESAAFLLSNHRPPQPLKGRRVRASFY
Description for Carbonic anhydrase 13: Ki value against murine carbonic anhydrase XIII
Description for Carbonic anhydrase 7: Ki value against human carbonic anhydrase VII

Usually Ki stands for a dissociation constant, usually derived from enzyme kinetics or from competition with a known ligand. On to `NCc1ccc(S(N)(=O)=O)cc1` [MAFENIDE], for which affinity on Carbonic anhydrase 7 was put at a Ki of 75 nM.
Same read-out and setting: for `Nc1ccc(S(N)(=O)=O)cc1Cl` the value was 120 nM.
Take `Nc1ccc(S(=O)(=O)NCCc2ccc(S(N)(=O)=O)cc2)cc1`: the Ki was determined as 6.5 nM on Carbonic anhydrase 7 and 1.9 nM on Carbonic anhydrase 13.
As for `Nc1nnc(S(N)(=O)=O)s1`, on Carbonic anhydrase 7, the affinity, expressed as Ki, was 5.2 nM.
Consider `Nc1ccccc1S(N)(=O)=O`, for which the Ki at Carbonic anhydrase 7 was 45 nM.
Take `Nc1ccc(S(N)(=O)=O)cc1F`: at Carbonic anhydrase 7, the Ki stood at 75 nM.
Take `NS(=O)(=O)c1nc2ccccc2s1`: at Carbonic anhydrase 7, the affinity corresponds to a Ki of 4 nM.
`Cn1nc(S(N)(=O)=O)sc1=N` had a Ki at Carbonic anhydrase 7 of 4.3 nM.
Take `Nc1ccc(S(N)(=O)=O)cc1I`: the Ki on Carbonic anhydrase 7 was 150 nM.
Same read-out and setting: the figure for `Cc1ccc(S(N)(=O)=O)cc1` [P-TOLUENESULFONAMIDE] is 88 nM.
On Carbonic anhydrase 7, `NS(=O)(=O)c1ccc(CO)cc1` returned a Ki of 60 nM.
As for `Nc1ccc(S(N)(=O)=O)cc1Br`, at Carbonic anhydrase 7, the Ki came out at 61 nM.
In the case of `Nc1ccc(S(=O)(=O)NC2NN=C(S(N)(=O)=O)S2)cc1` (stereo not given), on Carbonic anhydrase 7, the Ki worked out at 7 nM.
With `Nc1ccc(S(=O)(=O)NCc2ccc(S(N)(=O)=O)cc2)cc1`, the Ki on Carbonic anhydrase 7 was determined as 5.6 nM; on Carbonic anhydrase 13, 2 nM.
On Carbonic anhydrase 7, `NNc1ccccc1S(N)(=O)=O` returned a Ki of 68 nM.
As for `NNc1ccc(S(N)(=O)=O)cc1`, the Ki at Carbonic anhydrase 7 was 89 nM; on Carbonic anhydrase 1, 28000 nM.
At Carbonic anhydrase 7, `Nc1nccc(Nc2ccc(S(N)(=O)=O)cc2)n1` registered a Ki of 6.8 nM.
As for `NS(=O)(=O)c1ccc(CCO)cc1`, affinity at Carbonic anhydrase 7 was put at a Ki of 66 nM.
Still for that read-out and setting: the figure for `NS(=O)(=O)c1ccc(C(=O)O)cc1` [CARZENIDE] is 52 nM.
Take `NS(=O)(=O)c1nnc(-c2ccccc2Cl)s1`: the Ki was found to be 5.4 nM on Carbonic anhydrase 7 and 690 nM at Carbonic anhydrase 1.
For `Nc1ccc(S(N)(=O)=O)cc1` [SULFANILAMIDE], the Ki at Carbonic anhydrase 7 was 70 nM.

(Values after ChEMBL document CHEMBL1141985, “Carbonic anhydrase inhibitors. Inhibition of the human cytosolic isozyme VII with aromatic and heterocyclic sulfonamides” (Bioorg Med Chem Lett, 2005).)
